Data: patent publication US20160175401A1, “COMPOITIONS AND METHODS FOR MODULATING THERMOGENESIS USING PTH-RELATED AND EGF-RELATED COMPOUNDS” (DANA-FARBER CANCER INSTITUTE INC., priority 2013, published 2016)

Assays:
[1] = system: primary brown adipocytes; assay: Thermogenic gene expression (qRT-PCR) in primary brown adipocytes; format: cell-based, mouse
Method: (§1) RNA was extracted from cultured cells or frozen tissue samples using TRIzol (Invitrogen), purified with Qiagen RNAeasy minicolums and reverse transcribed using High Capacity cDNA Reverse Transcription kit (Applied Biosystems). Resulting cDNA was analyzed by RT-qPCR. Briefly, 25 ng of cDNA and […] of each primer were mixed with SYBR® GreenER™ PCR Master Mix (Invitrogen). Reactions were performed in 384-well format using an ABI PRISM® 7900HT instrument (Applied Biosystems). Relative mRNA levels were calculated using the comparative CT method normalized to cyclophilin.

[2] = system: primary white adipocytes; assay: Thermogenic gene expression (qRT-PCR) in primary white adipocytes; format: cell-based, mouse; details: for thermogenic effects (thermogenic gene expression): 1 μg/ml, 4 hours, primary white adipocytes (FIG. 8A-8C)
Method: Inguinal SV fractions were obtained from 30-35 days-old male mice by the following procedure. Inguinal fat tissue was dissected, washed with PBS, minced and digested for 45 min at 37° C. in PBS containing 10 mM CaCl, 2.4 U/mL dispase II (Roche), and 1.5 U/mL collagenase D (Roche). Digested tissue was filtered through a 100-μm cell strainer and centrifuged at 600 g for 5 min to pellet the SV cells which were then resuspended in SV culture medium (DMEM/F12 [1:1; Invitrogen] plus glutamax, pen/strep, and 10% FBS), filtered through a 40-μm cell strainer, centrifugation as above, resuspended in SV culture medium and plated. SV cells were grown to confluency for adipocyte differentiation which was induced by the adipogenic cocktail containing 1 μM dexamethasone, 5 μg/mL insulin, […] isobutylmethylxanthine (DMI), and 1 μM rosiglitazone in SV culture medium. 2 days after induction, cells were maintained in SV culture medium containing 5 μg/mL insulin and 1 μM rosiglitazone. Starting at day 6, cells were maintained in SV culture medium only and treated with various molecules for […] and harvested at day 8.
LLC cells were maintained in DMEM (Invitrogen) with 10% FBS and pen/strep. For conditioned media collection, cells were plated at ⅓ confluency. The following day, medium is changed to FreeStyle expression medium (Invitrogen) which was collected 24 hours later. For concentration of expression medium, LLC conditioned media was filtered using a 3 kilodalton (Kd) cut-off filter (Millipore). Adipocytes were maintained in SV culture media (DMEM/F12 [1:1; Invitrogen] plus glutamax, pen/strep, and 10% FBS) and conditioned media treatment experiments were performed 7 days post-differentiation. When adipocytes were treated with conditioned media for 24 hours, the treatment media were composed of 50% SV culturing medium and 50% LLC conditioned media. When conditioned medium was filtered and concentrated, adipocytes were exposed to 90% SV culturing medium and 10% concentrated LLC conditioned media.
as §1
Inguinal stroma-vascular fractions were obtained from 30-35-day-old male mice using the following procedure: Inguinal fat tissue was dissected, washed with PBS, minced and digested for 45 min at 37° C. in PBS containing 10 mM CaCl2, 2.4 Uml^−1 dispase 11 (Roche) and 1.5 U ml^−1 collagenaseD (Roche). Digested tissue was filtered through a 100-μm cell strainer and centrifuged at 600 g for 5 min to pellet the stroma-vascular cells. The pellets were then resuspended in adipocyte culture medium (DMEM/F2 (1:1, Invitrogen) plus GlutaMAX, penicillin and streptomycin, and 10% FBS), filtered through a 40-μm cell strainer, centrifuged as above, resuspended in adipocyte culture medium and plated. The stroma-vascular cells were grown to confluence for adipocyte differentiation, which was induced by an adipogenic cocktail containing 1 μM dexamethasone, 5 μg ml^−1 insulin, […] isobutylmethylxanthine (DMI) and 1 μM rosiglitazone in adipocyte culture medium. Two days after induction, cells were maintained in adipocyte culture medium containing 5 μg ml^−1 insulin and 1 μM rosiglitazone. Starting on day 6, cells were maintained in adipocyte culture medium only and treated with various molecules for 2-24 h and harvested on day 8.
LLC cells were maintained in DMEM (Invitrogen) with 10% FBS, and penicillin and streptomycin. For conditioned medium collection, cells were plated at a 1:3 confluence.

[3] = system: PKA substrates CREB and HSL; assay: PKA signalling: protein phosphorylation by western blotting in primary adipocytes; format: cell-based, mouse; details: 100 nM NE, 100 ng ml^−1 PTHrP or PTH, 30 min, primary white and brown adipocytes (FIG. 23D-23E)
Method: UCP1 protein levels were measured by western blotting in white (FIG. 23A) and brown (FIG. 23B) adipocytes. […] Real-time triplicate readings (upper panel) and their averages (lower panel) are shown (n=4). […] The values are mean±s.e.m. Statistical analysis was conducted using the two-tailed t-test. *, P<0.05; **, P<0.005; ***, P<0.0005, compared with the control group.
Cells were homogenized in a lysis buffer containing 50 mMTris (pH 7.4), 500 mM NaCl, 1% NP40, 20% glycerol, 5 mM EDTA and 1 mM phenylmethylsulphonyl fluoride (PMSF) supplemented with protease and phosphatase inhibitor cocktails (Roche). The homogenates were centrifuged at 13,000 r.p.m. for 10 min, and the supernatants were used as whole-cell lysates. Protein concentration was determined by Bio-Rad protein assay, and […] protein lysate was separated in each SDS-PAGE lane. The separated proteins were transferred to a polyvinylidene difluoride (PVDF)membrane, which was blotted with antibodies in TBS containing 0.05% Tween (TBS-T) and 5% BSA. For secondary antibody incubation. TBS-T containing 5% milk was used. Enhanced chemiluminescence (ECL) western blotting substrates (Pierce) were used for visualization of the results.

[4] = molecular target: T1, PTH1R (Homo sapiens, UniProt Q03431); details: cited from earlier work
T1 sequence (Q03431 27-593): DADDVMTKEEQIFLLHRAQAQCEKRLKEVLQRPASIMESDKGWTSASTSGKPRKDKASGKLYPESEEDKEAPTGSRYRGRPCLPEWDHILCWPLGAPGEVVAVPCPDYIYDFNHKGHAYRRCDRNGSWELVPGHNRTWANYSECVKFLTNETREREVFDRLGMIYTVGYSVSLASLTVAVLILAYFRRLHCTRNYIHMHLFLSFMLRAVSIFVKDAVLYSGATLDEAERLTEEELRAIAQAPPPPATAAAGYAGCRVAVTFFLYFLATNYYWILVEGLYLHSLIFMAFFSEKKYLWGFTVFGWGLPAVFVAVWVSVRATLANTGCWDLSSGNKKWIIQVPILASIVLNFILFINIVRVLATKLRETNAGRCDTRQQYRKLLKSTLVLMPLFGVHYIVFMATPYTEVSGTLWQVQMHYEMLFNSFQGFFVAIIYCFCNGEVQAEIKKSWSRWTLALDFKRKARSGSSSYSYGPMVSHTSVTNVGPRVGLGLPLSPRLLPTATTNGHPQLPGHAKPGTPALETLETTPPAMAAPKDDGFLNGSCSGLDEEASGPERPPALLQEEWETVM

PTH (1-34): Synthetic peptide rat PTH(1-34) (Ala32-Phe65; Catalog No. H-5460), purchased from Bachem
thermogenic gene expression ([1]; 100 ng ml^−1 peptide, 2 h, primary brown adipocytes (FIG. 20D)): stimulated thermogenic gene expression | thermogenic effects (thermogenic gene expression) ([1]; 1 μg/ml, primary brown adipocytes (FIG. 9A)): thermogenic effects | thermogenic gene expression ([2]; 100 ng ml^−1 peptide, 2 h, primary white adipocytes (FIG. 21B)): stimulated thermogenic gene expression | thermogenic effects (thermogenic gene expression) [2]: thermogenic effects | thermogenic effects (thermogenic gene expression) ([2]; listed as PTH): powerful inducers of thermogenic gene expression | phosphorylation of the PKA substrates CREB and HSL [3]: stimulated the phosphorylation | duration of cAMP signal after ligand wash-out ([4]; Dean et al. (2008)): longer lasting cAMP signal | potency for activating cAMP signaling ([4]; Juppner et al. (1991)): equally potent for activating cAMP signaling
